Publication PMC10321483 (Chemical Science, 2023)

biological target: T1, LdtMt2-ebselen complex (Mycobacterium tuberculosis, UniProt I6Y9J2); experiment: SPE-MS active-site selectivity assay with ebselen-preincubated LdtMt2; format: binding; conditions: inhibitor 100 µM, 24 h
T1 construct: made in house; host or cells: E. coli
Protocol: LdtMt2 contains only a single cysteine residue (Cys354). However, as several identified electrophiles are able to react with residues other than cysteine,[30,31] it was assessed whether covalent modification of LdtMt2 by the inhibitors is related to reaction with Cys354. […] Apparently complete LdtMt2 modification by a single molecule of ebselen (+274 Da) was observed. Inhibitors 1–21 were then added to the ebselen derived LdtMt2 complex (Fig. S11 ^†).
Figure S11. Protein observed SPE-MS based active -site selectivity assay s. LdtMt2 (1 µM) was 153 preincubated with ebselen (10 µM, a known Ldt Mt2 inhibitor3, which reacts with the nucleophilic 154 Cys354) for 1 h in 50 mM Tris, pH 7.5 , prior to addition of inhibitors 1-15 (100 µM). Samples were 155 analysed after an additional 24 h incubation at room temperature. The spectrum in blue corresponds 156 to LdtMt2 reacted with ebselen. The spectrum in green corresponds to LdtMt2 reacted with the specified 157 inhibitor, following preincubation with ebselen. The spectrum in purple corresponds to LdtMt2 reacted 158 with the specified inhibitor. Deconvoluted spectra, obtained using the maximum entropy algorithm in 159 the MassHunter Workstation Qualitative Analysis B.07.00 program (Agilent), are shown. 160
(1 picture or pasted object on this page, not shown here)

T1 sequence (I6Y9J2 56-408, one chain of several): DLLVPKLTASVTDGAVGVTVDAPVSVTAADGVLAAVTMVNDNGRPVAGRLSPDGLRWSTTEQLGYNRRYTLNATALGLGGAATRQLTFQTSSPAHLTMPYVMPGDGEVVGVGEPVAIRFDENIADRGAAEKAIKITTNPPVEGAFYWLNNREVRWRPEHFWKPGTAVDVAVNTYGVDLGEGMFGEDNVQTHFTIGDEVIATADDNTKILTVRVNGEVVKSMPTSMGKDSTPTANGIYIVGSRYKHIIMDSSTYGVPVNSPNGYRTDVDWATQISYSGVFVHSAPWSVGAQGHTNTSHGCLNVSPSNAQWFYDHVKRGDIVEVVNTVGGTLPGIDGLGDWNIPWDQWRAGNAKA

Q: Which “reaction with the LdtMt2-ebselen complex (Cys354 unavailable)” value (“reaction with the LdtMt2-ebselen complex” for short) does the source give for `CC(C)(C)OC(=O)Nc1ccc(N2C(=O)C=CC2=O)cc1` [Compound 6] here?
A: observed to react with the LdtMt2-ebselen complex

Q: `CCOc1ccc(CN2C(=O)C(=O)c3cc(Br)cc(C)c32)cc1OC` [Compound 16] was tested. Which “reaction with the LdtMt2-ebselen complex” value did it give?
A: observed to react with the LdtMt2-ebselen complex

Q: Which “reaction with the LdtMt2-ebselen complex” value does the source give for `COc1ccc(CN2C(=O)C(=O)c3cc(Br)cc(C)c32)cc1OC` [Compound 17] here?
A: observed to react with the LdtMt2-ebselen complex
